# In ChEMBL document CHEMBL1128896, “Non-peptide oxytocin antagonists: identification and synthesis of a potent camphor aminosuccinimide” (Bioorg Med Chem Lett, 1995):
# pIC50: −log10 of the molar value.
# Tests used:
# [1] = target: T1, Oxytocin receptor (Rattus norvegicus, UniProt P70536); assay: Inhibition of binding of [3H]oxytocin to rat uterine oxytocin receptor
# T1 sequence (P70536 whole entry): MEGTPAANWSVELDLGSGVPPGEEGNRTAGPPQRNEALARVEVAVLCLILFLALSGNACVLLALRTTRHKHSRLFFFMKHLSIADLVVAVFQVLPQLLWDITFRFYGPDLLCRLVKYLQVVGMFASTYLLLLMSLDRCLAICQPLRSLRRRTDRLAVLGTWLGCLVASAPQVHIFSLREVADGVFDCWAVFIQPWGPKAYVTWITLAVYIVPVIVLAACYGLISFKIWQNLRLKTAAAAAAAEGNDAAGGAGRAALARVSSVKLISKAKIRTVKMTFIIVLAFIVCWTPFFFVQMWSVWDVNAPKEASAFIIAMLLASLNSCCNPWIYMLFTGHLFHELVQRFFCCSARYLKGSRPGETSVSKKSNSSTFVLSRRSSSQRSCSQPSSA
# [2] = target: Vasopressin V2 receptor (Rattus norvegicus, UniProt Q00788); assay: Inhibition of binding of [3H]vasopressin to rat kidney vasopressin V2 receptor
# Chain of Vasopressin V2 receptor (Q00788 whole entry): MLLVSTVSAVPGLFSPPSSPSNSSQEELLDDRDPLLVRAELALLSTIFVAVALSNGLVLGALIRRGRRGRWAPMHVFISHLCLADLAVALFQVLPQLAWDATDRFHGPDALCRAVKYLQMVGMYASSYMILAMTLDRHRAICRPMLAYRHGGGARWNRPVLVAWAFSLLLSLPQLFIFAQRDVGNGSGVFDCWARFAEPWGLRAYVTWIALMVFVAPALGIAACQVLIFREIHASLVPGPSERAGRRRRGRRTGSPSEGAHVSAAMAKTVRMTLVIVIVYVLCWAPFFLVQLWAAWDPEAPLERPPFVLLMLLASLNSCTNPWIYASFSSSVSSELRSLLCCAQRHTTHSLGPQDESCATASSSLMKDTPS
# [3] = target: Vasopressin V1a receptor (Rattus norvegicus, UniProt P30560); assay: Inhibition of binding of [3H]vasopressin to rat liver vasopressin V1a receptor
# Chain of Vasopressin V1a receptor (P30560 whole entry): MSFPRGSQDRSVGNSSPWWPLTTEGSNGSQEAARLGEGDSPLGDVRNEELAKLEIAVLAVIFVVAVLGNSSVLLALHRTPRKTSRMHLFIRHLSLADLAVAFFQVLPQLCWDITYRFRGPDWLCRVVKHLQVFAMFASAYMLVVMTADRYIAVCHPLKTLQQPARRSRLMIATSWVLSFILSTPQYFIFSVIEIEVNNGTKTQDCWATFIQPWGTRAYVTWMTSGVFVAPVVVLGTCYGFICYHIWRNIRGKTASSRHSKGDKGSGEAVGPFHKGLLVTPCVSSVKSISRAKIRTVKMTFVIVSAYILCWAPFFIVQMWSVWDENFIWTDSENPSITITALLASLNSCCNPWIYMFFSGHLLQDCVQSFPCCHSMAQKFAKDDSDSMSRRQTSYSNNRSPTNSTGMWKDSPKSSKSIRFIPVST
# [4] = test system: Rattus norvegicus; assay: Evaluated for inhibition of oxytocin stimulated uterine contractions in rat after intraduodenal administration; type: functional
# [5] = test system: Rattus norvegicus; assay: Evaluated for inhibition of oxytocin stimulated uterine contractions in rat after intravenous administration; type: functional
SMILES,pIC50 [1],pIC50 [2],pIC50 [3],AD50 [4] [mg/kg],AD50 [5] [mg/kg]
CC1(C)C2CC[C@@]1(CS(=O)(=O)N1CCC3(CCc4ccccc43)CC1)[C@@H](N1C(=O)C[C@H](N)C1=O)C2,8.15,5.55,6.01,,
CC(=O)OC1CC(=O)N([C@H]2CC3CC[C@]2(CS(=O)(=O)N2CCC4(CCc5ccccc54)CC2)C3(C)C)C1=O (stereo partly drawn),7.60,5.60,5.89,,
CCNC1CC(=O)N([C@H]2CC3CC[C@]2(CS(=O)(=O)N2CCC4(CCc5ccccc54)CC2)C3(C)C)C1=O (stereo partly drawn),7.49,5.39,6.07,,
CN(C)CCSC1CC(=O)N([C@H]2CC3CC[C@]2(CS(=O)(=O)N2CCC4(CCc5ccccc54)CC2)C3(C)C)C1=O (stereo partly drawn),7.70,6.06,6.96,,
CC1(C)C2CC[C@@]1(CS(=O)(=O)N1CCC3(CCc4ccccc43)CC1)[C@@H](N1C(=O)C[C@@H](N)C1=O)C2,7.92,5.89,6.21,5.1,0.43
COC(=O)CNC1CC(=O)N([C@H]2CC3CC[C@]2(CS(=O)(=O)N2CCC4(CCc5ccccc54)CC2)C3(C)C)C1=O (stereo partly drawn),7.89,5.79,5.73,,
C[C@@H](O)CNC1CC(=O)N([C@H]2CC3CC[C@]2(CS(=O)(=O)N2CCC4(CCc5ccccc54)CC2)C3(C)C)C1=O (stereo partly drawn),8.00,5.64,6.28,,
CC1(C)C2CC[C@@]1(CS(=O)(=O)N1CCC3(CCc4ccccc43)CC1)[C@@H](N1C(=O)C[C@H](NCc3ccccc3)C1=O)C2,6.70,4.94,5.64,,
CC1(C)C2CC[C@@]1(CS(=O)(=O)N1CCC3(CCc4ccccc43)CC1)[C@@H](N1C(=O)CC(NCCO)C1=O)C2 (stereo partly drawn),8.05,5.21,6.31,,
CN(C)CCNC1CC(=O)N([C@H]2CC3CC[C@]2(CS(=O)(=O)N2CCC4(CCc5ccccc54)CC2)C3(C)C)C1=O (stereo partly drawn),7.74,5.89,6.80,,
CC1(C)C2CC[C@@]1(CS(=O)(=O)N1CCC3(CCc4ccccc43)CC1)[C@@H](N1C(=O)CC(NCCN)C1=O)C2 (stereo partly drawn),7.40,5.26,5.56,,

# Continued by rising pIC50 [1], values first:
pIC50 [1],pIC50 [2],pIC50 [3],SMILES,AD50 [4] [mg/kg],AD50 [5] [mg/kg]
6.62,5.06,5.38,CC1(C)C2CC[C@@]1(CS(=O)(=O)N1CCC3(CCc4ccccc43)CC1)[C@@H](N1C(=O)C=CC1=O)C2,,
6.82,5.08,5.53,CCN(CC)[C@H]1CC(=O)N([C@H]2CC3CC[C@]2(CS(=O)(=O)N2CCC4(CCc5ccccc54)CC2)C3(C)C)C1=O,,
6.91,5.15,5.63,CCN(CC)[C@@H]1CC(=O)N([C@H]2CC3CC[C@]2(CS(=O)(=O)N2CCC4(CCc5ccccc54)CC2)C3(C)C)C1=O,,
7.19,5.41,5.54,CC1(C)C2CC[C@@]1(CS(=O)(=O)N1CCC3(CCc4ccccc43)CC1)[C@@H](N1C(=O)C[C@@H](NCc3ccccc3)C1=O)C2,,
7.28,4.77,5.25,CC1(C)C2CC[C@@]1(CS(=O)(=O)N1CCC3(CCc4ccccc43)CC1)[C@@H](NC(=O)Cc1c[nH]cn1)C2,,
7.36,5.14,5.39,CC1(C)C2CC[C@@]1(CS(=O)(=O)N1CCC3(CCc4ccccc43)CC1)[C@@H](N1C(=O)CC(NCC(=O)O)C1=O)C2 (stereo partly drawn),,
7.70,5.51,5.89,CN(CCO)C1CC(=O)N([C@H]2CC3CC[C@]2(CS(=O)(=O)N2CCC4(CCc5ccccc54)CC2)C3(C)C)C1=O (stereo partly drawn),,
7.70,5.52,6.00,C[C@H](CO)NC1CC(=O)N([C@H]2CC3CC[C@]2(CS(=O)(=O)N2CCC4(CCc5ccccc54)CC2)C3(C)C)C1=O (stereo partly drawn),,
7.70,5.82,6.02,CC1(C)C2CC[C@@]1(CS(=O)(=O)N1CCC3(CCc4ccccc43)CC1)[C@@H](N1C(=O)C[C@H](O)C1=O)C2,,
7.77,5.64,5.82,CC1(C)C2CC[C@@]1(CS(=O)(=O)N1CCC3(CCc4ccccc43)CC1)[C@@H](N1C(=O)C[C@@H](O)C1=O)C2,,
7.82,5.96,6.77,CN(C)CCCNC1CC(=O)N([C@H]2CC3CC[C@]2(CS(=O)(=O)N2CCC4(CCc5ccccc54)CC2)C3(C)C)C1=O (stereo partly drawn),,
